Measured values from EP4603105A1, “PHARMACEUTICAL COMPOSITION CONTAINING CYCLIC COMPOUND HAVING SELECTIVE KRAS INHIBITORY EFFECT AGAINST HRAS AND NRAS” (CHUGAI SEIYAKU KABUSHIKI KAISHA, priority 2022, dated 2024).
Like-named read-outs stand apart in the source and are kept apart here. *1 amine or outer side, *2 acyl side, *3 side chain or, on linkers, in order; H or OH if unused. Where a SMILES comes first, the peptide text is derived from it. Bridges are numbered along the chain shown (N, C = ends). [ ]: non-standard residue; d: D form. The star is where a group is joined. hPhe(3,5-F2-4-CF3) = N[C@@H](CCc1cc(F)c(C(F)(F)F)c(F)c1)C(=O)O; hPhe(3-Cl-4-CF3) = N[C@@H](CCc1ccc(C(F)(F)F)c(Cl)c1)C(=O)O; NPrPhe(4-CF3) = CCCN[C@@H](Cc1ccc(C(F)(F)F)cc1)C(=O)O; NMePhe(4-Me) = CN[C@@H](Cc1ccc(C)cc1)C(=O)O; X21 = CCCN([C@H](C(=O)[*:2])C1CCCC1)[*:1]; NMeGly(cPent) = CN[C@H](C(=O)O)C1CCCC1; Pro(4,4-F2) = O=C(O)[C@@H]1CC(F)(F)CN1; NMeD = CN[C@@H](CC(=O)O)C(=O)O; NMeL = CN[C@@H](CC(C)C)C(=O)O; αMeL = CC(C)C[C@](C)(N)C(=O)O; Morpholide = C1CN(*)CCO1; Ac5c = NC1(C(=O)O)CCCC1; Aze = O=C(O)[C@@H]1CCN1; NEtG = CCNCC(=O)O; Sar = CNCC(=O)O

What was measured:
[1] = target: GDP-bound NRAS wild-type protein (Homo sapiens, UniProt P01111); experiment: Binding to NRAS by surface plasmon resonance (SPR), KD and KD ratio to KRAS
Chain of GDP-bound NRAS wild-type protein (P01111 whole entry): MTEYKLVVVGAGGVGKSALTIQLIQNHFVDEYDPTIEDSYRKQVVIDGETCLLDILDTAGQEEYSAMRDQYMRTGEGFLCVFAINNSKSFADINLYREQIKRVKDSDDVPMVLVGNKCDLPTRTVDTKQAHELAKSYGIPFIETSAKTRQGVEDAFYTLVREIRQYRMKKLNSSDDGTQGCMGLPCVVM
Summary of the method: (§1)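 Single-cycle kinetics on GDP-loaded biotin-Avi RAS captured to ~100–300 RU; 75 s ascending injections, 100 µL/min, 30°C. HBS pH 7.4 + 10 mM MgCl2/10 µM GDP/4% DMSO. 1:1 fit, KD.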

[2] = target: HRAS wild-type protein (Homo sapiens, UniProt P01112); experiment: Binding to HRAS by surface plasmon resonance (SPR), KD and KD ratio to KRAS
Chain of HRAS wild-type protein (P01112 whole entry): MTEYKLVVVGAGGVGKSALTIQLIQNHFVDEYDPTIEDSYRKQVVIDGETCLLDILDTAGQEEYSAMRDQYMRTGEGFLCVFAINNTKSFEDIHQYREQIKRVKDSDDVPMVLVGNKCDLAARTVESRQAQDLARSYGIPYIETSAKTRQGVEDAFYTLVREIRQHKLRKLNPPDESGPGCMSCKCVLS
Summary of the method: as §1

[3] = system: human lung cancer strain NCI-H441; format: cell-based
Summary of the method: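 Proliferation was scored by […] measured after the reagent was added to cultures kept at 37°C in 5% carbon dioxide.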

[4] = ratio of the KD value with respect to GDP-bound NRAS wild-type protein to the KD value with respect to KRAS
[5] = ratio of the KD value with respect to HRAS wild-type protein to the KD value with respect to KRAS
[6] = ratio of KD for GDP-bound NRAS wild-type protein to KD for KRAS
[7] = ratio of KD for HRAS wild-type protein to KD for KRAS

IC50 [3] | SMILES | NRAS /KRAS [1, 4] | HRAS /KRAS [2, 5] | NRAS /KRAS [1, 6] | HRAS /KRAS [2, 7] | IC50 ([3]; NCI-H441 cells, 4 days, CellTiter-Glo, read-out: NCl-H441 IC50) | NRAS /KRAS ([1]; ratio of KD value for GDP-bound NRAS wild-type protein to KD value for KRAS (SPR)) | HRAS /KRAS ([2]; ratio of KD value for HRAS wild-type protein to KD value for KRAS (SPR))
26.5 nM | CC[C@H](C)[C@@H]1NC(=O)[C@H](CC)N(C)C(=O)C[C@@H](C(=O)N(C)C)N(C)C(=O)[C@H](C2CCCC2)N(C)C(=O)C2(CCC2)NC(=O)[C@@H]2C[C@@H](N3CCC(F)(F)CC3)CN2C(=O)[C@H](CCc2cc(F)c(C(F)(F)F)c(F)c2)NC(=O)CN(C)C(=O)[C@H](Cc2ccc(C(F)(F)F)cc2)N2CCCC[C@@H](C2=O)N(C)C(=O)CN(C)C1=O [PP0656] | C (A compound having a KD ratio of 0.1 or more and less than 3 is denoted as C) | C (A compound having a KD ratio of 0.1 or more and less than 3 is denoted as C) | – | – | – | – | –
1 nM | CCC[C@H]1C(=O)N[C@@H]([C@@H](C)CC)C(=O)N(C)CC(=O)N(C)[C@H]2CCCCN(C2=O)[C@@H](Cc2ccc(C(F)(F)F)cc2)C(=O)N(C)CC(=O)N[C@@H](CCc2cc(F)c(C(F)(F)F)c(F)c2)C(=O)N2C[C@H](OCC)C[C@H]2C(=O)NC2(CCC2)C(=O)N(C)[C@@H](C2CCCC2)C(=O)N(C)[C@H](C(=O)N2CCOCC2)CC(=O)N1C [PP0709] | C (A compound having a KD ratio of 0.1 or more and less than 3 is denoted as C) | B (a compound having 3 or more and less than 10 is denoted as B) | – | – | – | – | –
– | CCOC[C@H]1C(=O)N[C@@H]([C@@H](C)CC)C(=O)N(C)CC(=O)N(C)[C@H]2C/C=C\CCN(C2=O)[C@@H](Cc2ccc(C(C)C)cc2)C(=O)N(C)CC(=O)N[C@@H](CCc2ccc(C(F)(F)F)c(OC)c2)C(=O)N2C[C@@H](C)C[C@H]2C(=O)NC2(CC(C)(C)C2)C(=O)N(C)[C@@H](C2CCCC2)C(=O)N(C)[C@H](C(=O)N(C)CC)CC(=O)N1C [PP2701] | – | – | A (a compound having 10 or more and less than 20 is denoted as A) | A (a compound having 10 or more and less than 20 is denoted as A) | 21.7 nM | – | –
3.8 nM | CCO[C@@H]1C[C@H]2C(=O)NC3(CCC3)C(=O)N(C)[C@@H](C3CCCC3)C(=O)N(C)[C@H](C(=O)N(C)C)CC(=O)N(C)[C@H]3CCCCCc4ccc(cc4)C[C@@H](C(=O)N(C)CC(=O)N[C@@H](CCc4ccc(C(F)(F)F)c(OC)c4)C(=O)N2C1)N1CC/C=C\C[C@@H](C1=O)N(C)C(=O)CN(C)C(=O)[C@H]([C@@H](C)CC)NC3=O [PP2262] | A (a compound having 10 or more and less than 20 is denoted as A) | B (a compound having 3 or more and less than 10 is denoted as B) | – | – | – | – | –
84.4 nM | CCCN1C(=O)CN(C)C(=O)CN(C)C(=O)[C@H]([C@@H](C)CC)NC(=O)[C@H](CC(C)C)N(C)C(=O)C[C@@H](C(=O)N2CCOCC2)N(C)C(=O)[C@H](C2CCCC2)N(C)C(=O)C2(CCCC2)NC(=O)[C@@H]2CCCN2C(=O)[C@H](CCc2ccc(C(F)(F)F)c(Cl)c2)NC(=O)CN(C)C(=O)[C@@H]1C1CCCC1 [PP0061] ([NMeL]I[Sar][Sar][X21][Sar][hPhe(3-Cl-4-CF3)]P[Ac5c][NMeGly(cPent)][NMeD]-Morpholide; lactam N-11) | – | – | B (a compound having 3 or more and less than 10 is denoted as B) | C (A compound having a KD ratio of 0.1 or more and less than 3 is denoted as C) | – | – | –
11.1 nM | CCO[C@@H]1C[C@H]2C(=O)NC3(CC(C)(C)C3)C(=O)N(C)[C@@H](C(CC)CC)C(=O)N(C)[C@H](C(=O)N(C)C)CC(=O)N(C)[C@H]3CCCCC/C=C/c4ccc(cc4)C[C@@H](C(=O)N(C)CC(=O)N[C@@H](CCc4cc(F)c(C(F)(F)F)c(F)c4)C(=O)N2C1)N1CC/C=C\C[C@@H](C1=O)N(C)C(=O)CN(C)C(=O)[C@H]([C@@H](C)CC)NC3=O [PP3048] | – | – | A (a compound having 10 or more and less than 20 is denoted as A) | A (a compound having 10 or more and less than 20 is denoted as A) | – | – | –
356 nM | CCCN1C(=O)[C@@H]2CCN2C(=O)CN(C)C(=O)[C@H]([C@@H](C)CC)NC(=O)[C@H](CC(C)C)N(C)C(=O)C[C@@H](C(=O)N2CCOCC2)N(C)C(=O)[C@H](C2CCCC2)N(C)C(=O)[C@](C)(CC(C)C)NC(=O)[C@@H]2CCCN2C(=O)[C@H](CCc2cc(F)c(C(F)(F)F)c(F)c2)NC(=O)CN(C)C(=O)[C@@H]1Cc1ccc(C(F)(F)F)cc1 [PP0795] ([NMeL]I[Sar][Aze][NPrPhe(4-CF3)][Sar][hPhe(3,5-F2-4-CF3)]P[αMeL][NMeGly(cPent)][NMeD]-Morpholide; lactam N-11) | – | – | C (A compound having a KD ratio of 0.1 or more and less than 3 is denoted as C) | B (a compound having 3 or more and less than 10 is denoted as B) | – | – | –
26.4 nM | CC[C@H](C)[C@@H]1NC(=O)[C@H](CC(C)C)N(C)C(=O)C[C@@H](C(=O)N2CCOCC2)N(C)C(=O)[C@H](C2CCCC2)N(C)C(=O)C2(CCCC2)NC(=O)[C@@H]2CCCN2C(=O)[C@H](CCc2ccc(C(F)(F)F)c(Cl)c2)NC(=O)CN(CC)C(=O)[C@H](Cc2ccc(C)cc2)N(C)C(=O)CN(CC)C(=O)CN(C)C1=O [PP0029] ([NMeL]I[Sar][NEtG][NMePhe(4-Me)][NEtG][hPhe(3-Cl-4-CF3)]P[Ac5c][NMeGly(cPent)][NMeD]-Morpholide; lactam N-11) | – | – | C (A compound having a KD ratio of 0.1 or more and less than 3 is denoted as C) | C (A compound having a KD ratio of 0.1 or more and less than 3 is denoted as C) | – | – | –
958 nM | CCO[C@@H]1C[C@H]2C(=O)NC3(CCC3)C(=O)N(C)[C@@H](C3CCCC3)C(=O)N(CC)[C@H](C(=O)N3CCOCC3)CC(=O)N(C)[C@@H](Cc3ccccc3)C(=O)N[C@@H]([C@@H](C)CC)C(=O)N(C)CC(=O)N(C)[C@H]3CCCCCN(C3=O)[C@@H](Cc3ccc(C(F)(F)F)cc3)C(=O)N(C)CC(=O)N[C@@H](CCc3cc(F)c(C(F)(F)F)c(F)c3)C(=O)N2C1 [PP0950] | – | – | A (a compound having 10 or more and less than 20 is denoted as A) | B (a compound having 3 or more and less than 10 is denoted as B) | – | – | –
32.4 nM | CCC[C@H]1C(=O)N[C@@H]([C@@H](C)CC)C(=O)N(C2CC2)CC(=O)N(C)[C@H]2C/C=C\CCN(C2=O)[C@@H](Cc2ccc(C(F)(F)F)cc2)C(=O)N(C)CC(=O)N[C@@H](CCc2cc(F)c(C(F)(F)F)c(F)c2)C(=O)N2C[C@H](OCC)C[C@H]2C(=O)N(C)C2(CCC2)C(=O)N(C)[C@@H](C2CCCC2)C(=O)N(C)[C@H](C(=O)N2CCCC2)CC(=O)N1C [PP3112] | – | – | A (a compound having 10 or more and less than 20 is denoted as A) | B (a compound having 3 or more and less than 10 is denoted as B) | – | – | –
74.8 nM | CCC[C@H]1C(=O)N[C@@H]([C@@H](C)CC)C(=O)N(C)CC(=O)N(C)[C@H]2C/C=C\CCN(C2=O)[C@@H](Cc2ccc(C)cc2)C(=O)N(C)CC(=O)N[C@@H](CCc2ccc(C(F)(F)F)c(OC)c2)C(=O)N2CC3(CC3)C[C@H]2C(=O)NC2(CC(C)(C)C2)C(=O)N(C)[C@@H](CC(F)(F)F)C(=O)N(C)[C@H](C(=O)N(C)C)CC(=O)N1C [PP3012] | – | – | A (a compound having 10 or more and less than 20 is denoted as A) | A (a compound having 10 or more and less than 20 is denoted as A) | – | – | –
138 nM | CCO[C@@H]1C[C@H]2C(=O)NC3(CCC3)C(=O)N(C)[C@@H](C3CCCC3)C(=O)N(C)[C@H](C(=O)N(C)C)CC(=O)N(C)[C@@H](CC3CCCC3)C(=O)N[C@@H]([C@@H](C)CC)C(=O)N(C)CC(=O)N(C)[C@H]3C/C=C\CCN(C3=O)[C@@H](Cc3ccc(C)cc3)C(=O)N(C)CC(=O)N[C@@H](CCc3cc(C)c(C(F)F)c(C)c3)C(=O)N2C1 [PP2675] | – | – | A (a compound having 10 or more and less than 20 is denoted as A) | A (a compound having 10 or more and less than 20 is denoted as A) | – | – | –
19.4 nM | CCCN1C(=O)CN(C)C(=O)[C@@H]2CCN2C(=O)[C@H]([C@@H](C)CC)NC(=O)[C@H](CC(C)C)N(C)C(=O)C[C@@H](C(=O)N2CCOCC2)N(C)C(=O)[C@H](C2CCCC2)N(C)C(=O)C2(CCCC2)NC(=O)[C@@H]2CC(F)(F)CN2C(=O)[C@H](CCc2ccc(C(F)(F)F)c(Cl)c2)NC(=O)CN(C)C(=O)[C@@H]1Cc1ccc(C(F)(F)F)cc1 [PP0403] ([NMeL]I[Aze][Sar][NPrPhe(4-CF3)][Sar][hPhe(3-Cl-4-CF3)][Pro(4,4-F2)][Ac5c][NMeGly(cPent)][NMeD]-Morpholide; lactam N-11) | B (a compound having 3 or more and less than 10 is denoted as B) | B (a compound having 3 or more and less than 10 is denoted as B) | – | – | – | – | –
6.9 nM | CCO[C@@H]1C[C@H]2C(=O)N(C)C3(CCC3)C(=O)N(C)[C@@H](C3CCCC3)C(=O)N(C)[C@H](C(=O)N(C)C)CC(=O)N(C)[C@@H](CC)C(=O)N[C@@H]([C@@H](C)CC)C(=O)N3CCC[C@H]3C(=O)N(C)[C@H]3C/C=C\CCN(C3=O)[C@@H](Cc3ccc(C)cc3)C(=O)N(C)CC(=O)N[C@@H](CCc3cc(F)c(C(F)(F)F)c(F)c3)C(=O)N2C1 [PP1785] | – | – | – | – | – | A (a compound having 10 or more and less than 20 is denoted as A) | A (a compound having 10 or more and less than 20 is denoted as A)
340 nM | CC[C@H](C)[C@@H]1NC(=O)[C@H](CC(C)C)N(C)C(=O)C[C@@H](C(=O)N2CCOCC2)N(CC)C(=O)[C@H](C2CCCC2)N(C)C(=O)C2(CCCC2)NC(=O)[C@@H]2CCCN2C(=O)[C@H](CCc2ccc(C(F)(F)F)c(Cl)c2)NC(=O)CN(C)C(=O)[C@H](Cc2ccc(F)cc2)N2CCCCC[C@@H](C2=O)N(C)C(=O)CN(C)C1=O [PP0970] | – | – | B (a compound having 3 or more and less than 10 is denoted as B) | B (a compound having 3 or more and less than 10 is denoted as B) | – | – | –
